From patent US11377442B2, “Small molecule agonists and antagonists of NR2F6 activity” (ZANDER THERAPEUTICS, INC., priority 2016, dated 2022) come the findings set out here.

Common to all, as to type: cell-based
One experiment addresses T1, NR2F6 (Homo sapiens, UniProt P10588).
T1 construct: expressed in transfected cells; also transient transfection
T1 sequence (P10588 1-404): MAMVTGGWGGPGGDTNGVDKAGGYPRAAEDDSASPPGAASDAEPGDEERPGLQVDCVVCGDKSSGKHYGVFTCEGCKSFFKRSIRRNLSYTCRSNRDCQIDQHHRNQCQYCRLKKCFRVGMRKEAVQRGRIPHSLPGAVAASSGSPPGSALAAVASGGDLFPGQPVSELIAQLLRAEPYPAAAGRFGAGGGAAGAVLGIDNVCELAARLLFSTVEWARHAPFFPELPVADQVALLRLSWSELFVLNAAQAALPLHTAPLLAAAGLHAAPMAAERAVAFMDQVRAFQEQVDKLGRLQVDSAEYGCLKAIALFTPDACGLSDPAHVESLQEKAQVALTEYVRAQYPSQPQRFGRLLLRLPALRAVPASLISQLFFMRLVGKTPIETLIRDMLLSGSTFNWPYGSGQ
Briefly: NR2F6 agonist screening, Firefly signal cmpd/DMSO. To be noted: for Firefly F4, cmpd/DMSO (mean): Table 14; for Firefly, cmpd/DMSO repeat 1 / Firefly, cmpd/DMSO repeat 2: first set screening, 10 μM.

A further experiment has as its system Renilla_ERa. Nature of the experiment: Renilla signal in ERα counterscreen (Renilla_ERa). To be noted: ERα transient transfection, 10 μM. A general note: Counterscreens check selectivity or assay interference.
The next experiment concerns the target T2, ERα (Homo sapiens, UniProt P03372).
T2 construct: expressed in transfected cells
T2 sequence (P03372 1-595): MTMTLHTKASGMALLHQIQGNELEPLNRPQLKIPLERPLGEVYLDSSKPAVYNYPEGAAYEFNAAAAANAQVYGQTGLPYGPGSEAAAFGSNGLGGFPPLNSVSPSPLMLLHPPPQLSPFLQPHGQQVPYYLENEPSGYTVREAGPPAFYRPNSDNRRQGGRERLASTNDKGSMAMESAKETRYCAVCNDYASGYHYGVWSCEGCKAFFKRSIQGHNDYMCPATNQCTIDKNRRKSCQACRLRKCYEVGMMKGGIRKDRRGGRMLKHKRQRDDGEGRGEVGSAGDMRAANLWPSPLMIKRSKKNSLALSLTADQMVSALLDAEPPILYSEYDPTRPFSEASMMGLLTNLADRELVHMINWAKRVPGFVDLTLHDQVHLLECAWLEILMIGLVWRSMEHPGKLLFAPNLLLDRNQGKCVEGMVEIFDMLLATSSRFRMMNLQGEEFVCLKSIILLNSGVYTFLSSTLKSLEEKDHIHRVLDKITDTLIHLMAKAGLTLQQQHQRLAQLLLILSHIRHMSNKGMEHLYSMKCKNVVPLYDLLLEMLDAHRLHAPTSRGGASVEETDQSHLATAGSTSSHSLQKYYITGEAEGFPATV
Briefly: Counterscreening, Firefly signal with ERα transient transfection (Firefly_ERa). Conditions: ERα transient transfection, 10 μM. The protocol:
The methodology for screening candidate compounds as NR2F6 agonists was as follows: For primary screening, hit criteria was ACT %>DMSO control+5*SD (DSO control) at 10 μM, or any compound with S/B>2. For rescreening, hit criteria was ACT %>DMSO control+3*SD (DSO control) in each replicate at 10 μM. For counterscreening, hit criteria was mean ACT<DMSO control+3*SD (DMSO control) with ERα transient transfection in duplicate at 10 μM.

In a further experiment the test system is HEK293 pGL4. Nature of the experiment: Firefly_pGL signal, cmpd/DMSO (pGL4 control cells). Conditions: Homo sapiens, HEK293, Table 14, read-out: Firefly pGL4, cmpd/DMSO (mean).
For the next experiment, the system named is Renilla. Briefly: Renilla signal in NR2F6 agonist screening, cmpd/DMSO. Conditions: for fold induction at 2 µM / fold induction at 10 µM / fold induction at 40 µM: Renilla.
Where [1] appears, read: repeat 1, read-out: Renilla_ERa, cmpd/DMSO repeat 1.
The mark [2] stands for this setting: repeat 2, read-out: Renilla_ERa, cmpd/DMSO repeat 2.
[3] abbreviates: Table 14, read-out: Renilla F4, cmpd/DMSO (mean).
Setting [4] is: Table 14, 10 uM, read-out: Renilla F4, cmpd/DMSO (mean).
Where [5] appears, read: first set screening, 10 μM, repeat 1, read-out: Renilla, cmpd/DMSO repeat 1.
[6] abbreviates: first set screening, 10 μM, repeat 2, read-out: Renilla, cmpd/DMSO repeat 2.

SMILES strings stand for the structures. Like-named read-outs stand apart in the source and are kept apart here.

With `Cc1ccn2cc(-c3ccc(F)cc3)cc2c1` [Compound 17], the “Firefly F4, cmpd/DMSO (mean)” value at NR2F6 (2 uM) was 1.9; at NR2F6 (10 uM), 1.2; at NR2F6 (40 uM), 1.3. Moreover, the “Firefly, cmpd/DMSO repeat 1” value at NR2F6 is recorded as 2.2. Further, at NR2F6, the “Firefly, cmpd/DMSO repeat 2” value was 2.4. For the same molecule, the fold induction at 10 µM with Renilla_ERa (setting [1]) worked out at 1.3; with Renilla_ERa (setting [2]), 1; with HEK293 pGL4, 1.6; with Renilla (setting [4]), 1; in the experiment on Renilla (setting [5]) it was 1.3; with Renilla (setting [6]), 1.4. Moreover, on ERα, the “Firefly_ERa, cmpd/DMSO repeat 1” value is reported as 2.5. Also, the “Firefly_ERa, cmpd/DMSO repeat 2” value on ERα came to 2.2. For the same molecule, the fold induction at 2 µM came to 1.7 in the experiment with HEK293 pGL4 and 0.8 in the experiment on Renilla (setting [3]). Besides, the fold induction at 40 µM was determined as 1.3 in the experiment with HEK293 pGL4 and 1 in the experiment on Renilla (setting [3]).

For `COc1ccc(-c2cn3cccc(C)c3n2)cc1` [Compound 19], the “Firefly F4, cmpd/DMSO (mean)” value is 1.7 on NR2F6 (2 uM), 1.0 at NR2F6 (10 uM) and 0.5 on NR2F6 (40 uM). Moreover, the “Firefly, cmpd/DMSO repeat 1” value on NR2F6 stood at 2.2. Moreover, at NR2F6, the “Firefly, cmpd/DMSO repeat 2” value was 1.7. The fold induction at 10 µM in the experiment on Renilla_ERa (setting [1]) was determined as 1.2; with Renilla_ERa (setting [2]) it was 1; in the experiment with HEK293 pGL4, 1.3; with Renilla (setting [4]), 1; in the experiment on Renilla (setting [5]), 1.6; with Renilla (setting [6]), 1.7. Besides, the “Firefly_ERa, cmpd/DMSO repeat 1” value on ERα was 2.3. Besides, the “Firefly_ERa, cmpd/DMSO repeat 2” value on ERα came to 2.4. The results for the fold induction at 2 µM in the experiment on HEK293 pGL4 and in the experiment with Renilla (setting [3]) were 1.9 and 1.1, respectively. The fold induction at 40 µM came out at 0.9 in the experiment on HEK293 pGL4 and 0.6 in the experiment on Renilla (setting [3]).

For `O=C(COc1ccccc1C(=O)N1CCOCC1)NCCc1ccccc1` [Compound 22], the “Firefly F4, cmpd/DMSO (mean)” value at NR2F6 (2 uM) turned out to be 1.3; at NR2F6 (10 uM), 1.4; on NR2F6 (40 uM) it was 0.6. Moreover, the “Firefly, cmpd/DMSO repeat 1” value on NR2F6 is recorded as 2.1. Moreover, at NR2F6, the “Firefly, cmpd/DMSO repeat 2” value is 2.9. For the same molecule, the fold induction at 10 µM worked out at 0.8 with Renilla_ERa (setting [1]); 1.1 with Renilla_ERa (setting [2]); 1 in the experiment with HEK293 pGL4; 1.1 in the experiment on Renilla (setting [4]); 1.1 in the experiment on Renilla (setting [5]); 1.3 in the experiment on Renilla (setting [6]). For the same molecule, the “Firefly_ERa, cmpd/DMSO repeat 1” value at ERα came out at 1.5. Moreover, the “Firefly_ERa, cmpd/DMSO repeat 2” value at ERα stood at 2.2. In addition, the fold induction at 2 µM in the experiment with HEK293 pGL4 worked out at 1.6; with Renilla (setting [3]) it was 0.8. The fold induction at 40 µM in the experiment with HEK293 pGL4 came out at 1.5; in the experiment with Renilla (setting [3]), 1.

With `O=c1[nH]c(CS(=O)(=O)c2ccccc2)nc2sc3c(c12)CCCC3` [Compound 25], on NR2F6, the “Firefly, cmpd/DMSO repeat 1” value is on record as 2.4 and the “Firefly, cmpd/DMSO repeat 2” value was 1.9. The “Renilla_ERa, cmpd/DMSO repeat 1” value in the experiment on Renilla_ERa (repeat 1) was 0.9. Besides, in the experiment with Renilla_ERa (repeat 2), the “Renilla_ERa, cmpd/DMSO repeat 2” value came out at 1.0. Further, on ERα, the “Firefly_ERa, cmpd/DMSO repeat 1” value was 1.3 and the “Firefly_ERa, cmpd/DMSO repeat 2” value was found to be 0.7. Further, the “Renilla, cmpd/DMSO repeat 1” value with Renilla (first set screening, 10 μM, repeat 1) is 3.1. The “Renilla, cmpd/DMSO repeat 2” value in the experiment on Renilla (first set screening, 10 μM, repeat 2) amounted to 2.1.

Turning to `Cc1cc(NC(=O)CCS(=O)(=O)c2nc(-c3ccc4c(c3)OCO4)cc(C(F)(F)F)n2)no1` [Compound C1], the “Firefly F4, cmpd/DMSO (mean)” value on NR2F6 (2 uM) worked out at 0.5; on NR2F6 (10 uM), 0.5; on NR2F6 (40 uM), 0.4. Further, the “Firefly, cmpd/DMSO repeat 1” value at NR2F6 amounted to 3.4. In addition, at NR2F6, the “Firefly, cmpd/DMSO repeat 2” value is 4.1. The “activity (in words)” value on NR2F6 (screening result) was “particularly good activity”. The fold induction at 10 µM with Renilla_ERa (setting [1]) was 1.3; in the experiment with Renilla_ERa (setting [2]), 1.2; in the experiment with HEK293 pGL4, 0.7; with Renilla (setting [4]), 0.2; in the experiment with Renilla (setting [5]) it was 4.1; with Renilla (setting [6]) it was 1.5. Besides, on ERα, the “Firefly_ERa, cmpd/DMSO repeat 1” value came out at 1.0. For the same molecule, the “Firefly_ERa, cmpd/DMSO repeat 2” value at ERα is given as 1.0. The figures for the fold induction at 2 µM with HEK293 pGL4 and with Renilla (setting [3]) were 0.7 and 2.1, respectively. In addition, the fold induction at 40 µM with HEK293 pGL4 is 0.6; with Renilla (setting [3]), 0.2.

With `COc1ccc(-c2cc(C(F)(F)F)nc(S(=O)(=O)CCCC(=O)Nc3sc4c(c3C(N)=O)CCCC4)n2)cc1OC` [Compound C2], the “Firefly, cmpd/DMSO repeat 1” value at NR2F6 was 2.7. The “Firefly, cmpd/DMSO repeat 2” value at NR2F6 came to 2.2. Besides, the fold induction at 10 µM in the experiment with Renilla_ERa (setting [1]) was found to be 1.7; in the experiment on Renilla_ERa (setting [2]), 1.6; in the experiment with Renilla (setting [5]) it was 6; with Renilla (setting [6]), 5.3. For the same molecule, the “Firefly_ERa, cmpd/DMSO repeat 1” value at ERα is given as 1.0. On ERα, the “Firefly_ERa, cmpd/DMSO repeat 2” value was 0.8.

For `COCCNC(=O)c1ccc2c(c1)N=C(C)c1cc(C)ccc1S2` [Compound C8], the “Firefly, cmpd/DMSO repeat 1” value on NR2F6 is listed as 2.1. Besides, on NR2F6, the “Firefly, cmpd/DMSO repeat 2” value turned out to be 2.8. In addition, the fold induction at 10 µM with Renilla_ERa (setting [1]) came out at 1; in the experiment with Renilla_ERa (setting [2]) it was 1.1; in the experiment on Renilla (setting [5]) it was 3.4; in the experiment with Renilla (setting [6]), 3.1. At ERα, the “Firefly_ERa, cmpd/DMSO repeat 1” value was 1.2. Moreover, the “Firefly_ERa, cmpd/DMSO repeat 2” value on ERα worked out at 1.2.

Take `CNC(=O)c1ccc2c(c1)N=C(C)c1cc(C)ccc1S2` [Compound C9]: at NR2F6, the “Firefly, cmpd/DMSO repeat 1” value amounted to 2.7. Moreover, the “Firefly, cmpd/DMSO repeat 2” value on NR2F6 came to 1.9. Further, the fold induction at 10 µM in the experiment on Renilla_ERa (setting [1]) is 0.9; in the experiment with Renilla_ERa (setting [2]) it was 1; with Renilla (setting [5]), 2.4; in the experiment on Renilla (setting [6]), 2.5. Further, on ERα, the “Firefly_ERa, cmpd/DMSO repeat 1” value was 2.5. For the same molecule, at ERα, the “Firefly_ERa, cmpd/DMSO repeat 2” value is 2.4.

As for `COc1cc(Nc2c3c(nc4ccc(Cl)cc24)CCC3)cc(OC)c1OC` [Compound C10], the “Firefly, cmpd/DMSO repeat 1” value on NR2F6 is recorded as 2.1. Besides, on NR2F6, the “Firefly, cmpd/DMSO repeat 2” value was 2.6. The fold induction at 10 µM was 0.7 in the experiment with Renilla_ERa (setting [1]), 0.8 with Renilla_ERa (setting [2]), 3.1 in the experiment with Renilla (setting [5]) and 1.6 with Renilla (setting [6]). Moreover, on ERα, the “Firefly_ERa, cmpd/DMSO repeat 1” value turned out to be 1.0. Besides, the “Firefly_ERa, cmpd/DMSO repeat 2” value on ERα is given as 1.3.

For the molecule `CCn1c(=O)c2cc(C(=O)Nc3ccc4c(C)cc(=O)oc4c3)sc2c2ccccc21` [Compound C16], at NR2F6, the “Firefly, cmpd/DMSO repeat 1” value came out at 2.7. Further, the “Firefly, cmpd/DMSO repeat 2” value at NR2F6 came to 2.3. Besides, the fold induction at 10 µM in the experiment with Renilla_ERa (setting [1]) is 0.9; in the experiment with Renilla_ERa (setting [2]) it was 1.1; in the experiment with Renilla (setting [5]), 3.9; in the experiment on Renilla (setting [6]), 3.2. On ERα, the “Firefly_ERa, cmpd/DMSO repeat 1” value is 1.0. Besides, the “Firefly_ERa, cmpd/DMSO repeat 2” value at ERα is 0.9.
